Experimental data published in patent US12558324B2, “Application of R-ketamine and salt thereof as pharmaceuticals” (National University Corporation Chiba University, priority 2013, dated 2026).

Experiments:
[1] = Non Patent Literature 12; cited from earlier work
Control C57/B6 mice [2] = assay: Locomotion-enhancing effect in control mice (side effect); format: in vivo; conditions: for locomotion (count/10 min) after injection: vs saline
Description: An effect of ketamine on the locomotion of mice was tested using SCANET MV-40 ([…] Co., Ltd., Toyama, Japan). Specifically, the locomotion was measured for a total of 180 minutes, i.e., 60 minutes before injection to 120 minutes after injection, and calculated as a locomotion per 10 minutes.

[3] = system: social defeat stress mice; assay: Tail suspension test (TST) in social defeat stress mice; conditions: for immobility time in the TST: 10 mg/kg i.p. single injection, vs saline; for antidepressant effects compared to S(+)-ketamine, TST: 10 mg/kg i.p.
Description: (§1) The TST was performed as described below. […] The FST was performed as described below. […] The cages were cleaned between testing session.

[4] = system: mice exposed neonatally to DEX; assay: Forced swimming test (FST) in DEX-treated mice; conditions: for immobility time in the FST: DEX-treated juvenile mice, 10 mg/kg i.p. single injection, vs saline
Description: (§2) On the final day of this period, the females were placed in isolation and checked daily around the expected delivery day. The day of birth was defined as day 0. The mice were injected intraperitoneally with DEX (Wako Pure Chemical Industries, Ltd., Tokyo, Japan) dissolved in saline on day 1, day 2, and day 3 at doses of 0.5 mg/kg body weight, 0.3 mg/kg body weight, and 0.1 mg/kg body weight, respectively. In addition, normal controls were injected with equal volumes (10 ml/kg) of saline.
as §1

[5] = system: mice exposed neonatally to DEX; assay: Tail suspension test (TST) in DEX-treated mice; conditions: for immobility time in the TST: DEX-treated juvenile mice, 10 mg/kg i.p. single injection, vs saline
Description: as §2, §1

[6] = system: social defeat stress mice; assay: Forced swimming test (FST) in social defeat stress mice; conditions: for immobility time in the FST: 10 mg/kg i.p. single injection, vs saline; for antidepressant effects compared to S(+)-ketamine, FST: 10 mg/kg i.p.
Description: as §1

[7] = system: treatment-resistant patients with MDD; conditions: cited from earlier work; for effective oral dose in patients with depression: Non Patent Literatures 15 and 16
Control C57/B6 mice [8] = assay: Prepulse inhibition test in control mice (side effect); conditions: 5, 10, or 20 mg/kg, prepulses 69, 73, 77, 81 dB before 110-dB pulse, vs saline
Description: PP69, PP73, PP77, and PP81 mean that stimuli at 69, 73, 77, and 81 dB for more than 20 milliseconds were presented 100 milliseconds before a 110-dB pulse, respectively. Data analysis was performed by Wilks Lambda, which is multivariate analysis of variance.
The prepulse inhibition test was performed using a startle response system (SR-LAB, SanDiego Instruments, San Diego, CA, United States).

[9] = Non Patent Literature 12; cited from earlier work; remark: listed apart in the source
[10] = system: social defeat stress mice; assay: 1% sucrose preference test (SPT) in social defeat stress mice; conditions: for sucrose consumption preference in the SPT: 10 mg/kg i.p. single injection, vs saline
Description: as §1

healthy volunteers = conditions: Non Patent Literature 13, cited from earlier work; for cerebral metabolic rates of glucose (CMRglu), PET: intravenous infusion of 15 mg for 5 min, then 0.014 to 0.02 mg/kg/min for 53 min (S), equimolar doses (R)
Control C57/B6 mice [11] = assay: Conditioned place preference test in control mice (dependence); conditions: injected on day 4, 6, 8, evaluation on day 11, vs saline
Description: 15-minute habituation was performed for 3 days. Then, 30-minute conditioning was performed on day 4 to day 10, and a behavioral evaluation test was performed on day 11. Saline was injected on day 5, day 7, and day 9. […] In each of the groups, the injection was performed three times, i.e., on day 4, day 6, and day 8. Saline means a group injected with saline. In the group, the injection was performed three times, i.e., on day 5, day 7, and day 9.
The place preference test was performed using a conditioned place preference test apparatus (BrainSienceIdea Co., Ltd., Osaka, Japan).

[12] = known property of both isomers; cited from earlier work
[13] = system: treatment-resistant obsessive-compulsive disorder and treatment-resistant posttraumatic stress disorder; conditions: treatment-resistant patients; Non Patent Literatures 6 to 8; cited from earlier work

Row | Structure (SMILES) | immobility time in the TST ([3]; 2 days after injection) | immobility time in the TST ([3]; 7 days after injection) | immobility time in the FST ([4]; 29 hours after injection) | immobility time in the FST ([4]; 7 days after injection) | immobility time in the TST ([5]; 27 hours after injection) | immobility time in the TST ([5]; 7 days after injection) | immobility time in the FST ([6]; 2 days after injection) | immobility time in the FST ([6]; 7 days after injection) | effective oral dose in patients with depression [7] [mg/kg] | prepulse inhibition (Control C57/B6 mice [8]) | sucrose consumption preference in the SPT ([10]; 1 day after injection) | sucrose consumption preference in the SPT ([10]; 6 days after injection) | cerebral metabolic rates of glucose (CMRglu), PET (healthy volunteers) | conditioned place preference test score (CPP score) (Control C57/B6 mice [11]; 5, 10, or 20 mg/kg) | further results
1 | CN[C@]1(c2ccccc2Cl)CCCCC1=O.Cl [S(+)-ketamine, S(+)-ketamine hydrochloride] | markedly reduced the immobility time | significantly reduced the immobility time | markedly reduced the immobility time | did not reduce the immobility time | markedly reduced the immobility time | did not reduce the immobility time | markedly reduced the immobility time | significantly reduced the immobility time | 1.25 | disrupted prepulse inhibition in a dose-dependent manner | the sucrose consumption preference significantly increased | significantly restored the sucrose consumption preference | increased cerebral metabolic rates of glucose | increased the CPP score in a dose-dependent manner | psychotomimetic side effects compared to R-isomer [1]: greater psychotomimetic side effects than R-isomer; time after injection at which enhanced locomotion returned to a normal value (Control C57/B6 mice [2]; 10 mg/kg or 20 mg/kg): 30 min; locomotion (count/10 min) after injection (Control C57/B6 mice [2]; 10 mg/kg or 20 mg/kg, 10 minutes and 20 minutes after the injection): significant increase in locomotion; antidepressant effects compared to RS(+/−)-ketamine (0.5 mg/kg, i.v.) ([7]; 0.25 mg/kg, i.v., treatment-resistant patients with MDD, case report, Non Patent Literature 14): weaker than those of RS(+/−)-ketamine; anesthetic effect as compared to R-isomer [9]: 3- to 4 fold
2 | CN[C@@]1(c2ccccc2Cl)CCCCC1=O.Cl [R(−)-ketamine, R(−)-ketamine hydrochloride] | markedly reduced the immobility time | significantly reduced the immobility time | markedly reduced the immobility time | significantly reduced the immobility time | markedly reduced the immobility time | significantly reduced the immobility time | markedly reduced the immobility time | significantly reduced the immobility time | – | did not disrupt prepulse inhibition | the sucrose consumption preference significantly increased | significantly restored the sucrose consumption preference | tended to decrease CMRglu across brain regions | did not increase the CPP score | locomotion (count/10 min) after injection (Control C57/B6 mice [2]; 5, 10, or 20 mg/kg, up to 120 minutes after injection): did not affect the locomotion; antidepressant effects compared to S(+)-ketamine, TST ([3]; 2 days after injection): significant high antidepressant effects as compared to those of S(+)-ketamine; antidepressant effects compared to S(+)-ketamine, TST ([3]; 7 days after injection): significantly high antidepressant effects as compared to S(+)-ketamine; antidepressant effects compared to S(+)-ketamine, FST ([4]; DEX-treated mice, 10 mg/kg i.p., 29 hours after injection, no significant difference): slightly high antidepressant effects as compared to those of S(+)-ketamine; difference between R(−)-ketamine and S(+)-ketamine, FST immobility time ([4]; DEX-treated mice, 10 mg/kg i.p., 7 days after injection): statistically significant; antidepressant effects compared to S(+)-ketamine, TST ([5]; DEX-treated mice, 10 mg/kg i.p., 27 hours after injection, no significant difference): slightly high antidepressant effects as compared to those of S(+)-ketamine; antidepressant effects compared to S(+)-ketamine, FST ([6]; 2 days after injection): significant high antidepressant effects as compared to those of S(+)-ketamine; antidepressant effects compared to S(+)-ketamine, FST ([6]; 7 days after injection): significantly high antidepressant effects as compared to S(+)-ketamine; in vivo clearance [12]: rapid in vivo clearance; antidepressant effects compared to S(+)-ketamine, SPT ([10]; 10 mg/kg i.p., 1 day after injection): more potent than those of S(+)-ketamine; difference between R(−)-ketamine and S(+)-ketamine, SPT ([10]; 10 mg/kg i.p., 6 days after injection): statistically significant; psychotic symptoms in PET study (healthy volunteers; doses equimolar to psychotomimetic doses of S(+)-ketamine): did not produce psychotic symptoms
3 | CNC1(c2ccccc2Cl)CCCCC1=O.Cl (racemic) [RS(+/−)-ketamine, ketamine hydrochloride] | – | – | – | – | – | – | – | – | 0.5 | – | – | – | – | – | effect on suicide ideation ([7]; Non Patent Literature 9): effect of inhibiting suicide ideation; duration of clinical antidepressant effects (other reports) ([7]; effects may last, Non Patent Literatures 3, 4, and 11): ≥ 2 weeks; antidepressant effect of intranasal administration ([7]; intranasal, treatment-resistant patients with MDD, Patent Literature 1 and Non Patent Literature 17): showed antidepressant effect; duration of clinical antidepressant effects ([7]; starting from several hours after single administration): 1 to 2 days; antidepressant effects in patients ([7]; treatment-resistant patients with MDD and depressive symptoms of treatment-resistant bipolar disorder, Non Patent Literatures 3 to 5): rapid and robust antidepressant effects; effect in obsessive-compulsive disorder and PTSD [13]: effective; conditioned place preference test score (CPP score) (Control C57/B6 mice [11]; 10 mg/kg): significantly increased the CPP score
